Where “and” joins values, the source holds several entries; their conditions need not be identical. Equal entries are not always repeated.
Key:
[1] = tested on: peroxidase; experiment: Peroxidase assay in saliva (Amplex Red); type: biochemical; details: 500 ppm; pooled or unpooled saliva; 30 minutes; FIGS. 30-33
Description: To determine the effect of various GRAS compounds as inhibitors of peroxidase activity, a standard assay using Amplex® Red (Life Technologies), which releases a fluorescent oxidation product.
The test compounds, such as GRAS materials or cocktails of same, were prepared at a concentration of 500 ppm in distilled water. For the assay, 50 μl samples of test compounds were mixed with 20-30 μl of saliva (either “pooled” or “unpooled”) prior to the addition of Amplex® Red. […] Reactions were allowed to run for 30 minutes during these assays.

[2] = tested on: galactose oxidase; details: dilute (3.5%) saliva; FIG. 17
[3] = molecular target: T1, α-amylase (Homo sapiens, UniProt P0DUB6); experiment: α-Amylase inhibition saliva screening, dilute (3.5%) saliva; type: biochemical; details: for absorbance at 405 nm, Ave / absorbance at 405 nm, single readings: test compound prepared at 5,000 ppm, 37° C.; for α-Amylase Inhibitor Activity: dilute (3.5%) saliva, FIG. 14
T1 sequence (P0DUB6 16-511): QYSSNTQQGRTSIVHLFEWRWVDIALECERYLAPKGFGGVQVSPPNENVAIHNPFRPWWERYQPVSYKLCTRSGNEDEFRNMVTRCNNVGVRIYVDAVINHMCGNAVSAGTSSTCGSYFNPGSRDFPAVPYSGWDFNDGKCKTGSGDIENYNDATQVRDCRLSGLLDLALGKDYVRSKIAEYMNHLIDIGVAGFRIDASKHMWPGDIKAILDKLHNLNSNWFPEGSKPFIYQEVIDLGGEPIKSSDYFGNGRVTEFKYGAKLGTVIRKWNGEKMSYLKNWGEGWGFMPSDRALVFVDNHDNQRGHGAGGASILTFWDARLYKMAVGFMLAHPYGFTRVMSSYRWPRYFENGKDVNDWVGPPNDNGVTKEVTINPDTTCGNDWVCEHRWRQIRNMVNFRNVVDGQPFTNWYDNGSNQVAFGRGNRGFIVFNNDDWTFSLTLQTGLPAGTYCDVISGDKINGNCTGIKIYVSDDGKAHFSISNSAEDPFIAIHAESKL
Description: Further details of these five compounds may also be seen in Table 4.

[4] = molecular target: T1, α-amylase; details: 100% saliva samples; FIG. 15
Description: Enzymatic activity of α-amylase on the substrate yields 2-chloro-p-nitrophenol, which can be measured spectrophotometrically at 405 nm. The amount of α-amylase activity present in the experimental sample is directly proportional to the increase in absorbance at 405 nm.

[5] = molecular target: T2, lysozyme (Homo sapiens, UniProt P61626); experiment: Lysozyme inhibition saliva screening, dilute (3.5%) saliva; type: biochemical; details: FIG. 16
T2 sequence (P61626 19-148): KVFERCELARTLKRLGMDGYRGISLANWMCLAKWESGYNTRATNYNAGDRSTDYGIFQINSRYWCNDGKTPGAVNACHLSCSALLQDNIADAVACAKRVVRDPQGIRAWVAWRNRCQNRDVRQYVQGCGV
Description: Further details of these five compounds may also be seen in Table 5.

COc1ccc(O)c(C(C)(C)C)c1 [CDI-39, 3-tert--butyl-hydroxyanisole]
peroxidase inhibition [1]: showed significant peroxidase inhibition capabilities | Galactose Oxidase Inhibitor Activity [2]: shown to have Galactose Oxidase Inhibitor Activity

Aluminum sulfate hydrate [CDI-34]
absorbance at 405 nm, Ave ([3]; 0 min): 0.40 | absorbance at 405 nm, single readings ([3]; 0 min, sulfate hydrate): 0.40 and 0.36 and 0.45 | absorbance at 405 nm, Ave ([3]; 5 min): 0.50 | absorbance at 405 nm, single readings ([3]; 5 min, sulfate hydrate): 0.49 and 0.50 and 0.52 | absorbance at 405 nm, Ave ([3]; 15 min): 0.56 | absorbance at 405 nm, single readings ([3]; 15 min, sulfate hydrate): 0.53 and 0.61 and 0.54 and 0.56 | α-Amylase Inhibitor Activity [3]: shown to have α-Amylase Inhibitor Activity | inhibition of α-Amylase [4]: shown to inhibit α-Amylase

O=C(O)c1ccccc1 [CDI-40, Benzoic acid]
Lysozyme Inhibitor Activity [5]: shown to have Lysozyme Inhibitor Activity | Galactose Oxidase Inhibitor Activity [2]: shown to have Galactose Oxidase Inhibitor Activity

Aluminum potassium sulfate dodecahydrate [CDI-42]
peroxidase inhibition [1]: showed significant peroxidase inhibition capabilities | Galactose Oxidase Inhibitor Activity [2]: shown to have Galactose Oxidase Inhibitor Activity | absorbance at 405 nm, Ave ([3]; 0 min): 0.92 | absorbance at 405 nm, single readings ([3]; 0 min): 0.80 and 0.90 and 0.84 | absorbance at 405 nm, Ave ([3]; 5 min): 1.85 | absorbance at 405 nm, single readings ([3]; 5 min): 1.80 | absorbance at 405 nm, Ave ([3]; 15 min): 2.29 | α-Amylase Inhibitor Activity [3]: shown to have α-Amylase Inhibitor Activity | inhibition of α-Amylase [4]: shown to inhibit α-Amylase

CC(=O)O [CDI-47, Acetic acid]
Lysozyme Inhibitor Activity [5]: shown to have Lysozyme Inhibitor Activity | Galactose Oxidase Inhibitor Activity [2]: shown to have Galactose Oxidase Inhibitor Activity

Cn1c(=O)c2c(ncn2C)n(C)c1=O [CDI-33, Caffeine]
peroxidase inhibition [1]: showed significant peroxidase inhibition capabilities

Reference: patent publication US8574856B2, “Methods for determining the efficiency of a therapeutic” (Companion Diagnostics Inc., priority 2010, dated 2013)
